Measurements published in patent US20230242558A1, “NICOTINATE AND NICOTINAMIDE RIBOSIDE-BASED COMPOUNDS AND DERIVATIVES THEREOF” (New Frontier Bio, Inc., priority 2022, published 2023).

Columns and labels:
HaCaT cells = assay: NAD assay in HaCaT cells, total NAD level normalized to protein; type: cell-based; details: 4 hours incubation, concentration not given
Description: The biological activity of certain compounds disclosed herein was determined using the following method: • 1. Plate HaCaT cells in 12-well tissue culture plates at a density of 200,000 cells per well in 0.75 mL DMEM growth medium. Incubate overnight at 37° C. in a incubator at 5% CO2. • 2. Next day, prepare dilutions of each compound in growth medium at the desired final concentration. • 3. Incubate cells as above for 4 hours. • 4. After the incubation, wash cell monolayers in each well with 200 uL PBS and add 200 uL 0.25% Trypsin. Let cells lift for 15 minutes. • 5. Once cells are lifted, collect cells into sterile 1.5 mL Eppendorf tube containing 400 uL of DMEM w/2% HI FBS. • 6. Centrifuge tubes for 500×g for 5 min. • 7. Aspirate supernatant and wash cells with 200 uL of cold PBS. • 8. Centrifuge tubes for 500×g for 5 min. • 9. Aspirate supernatant and add 400 μL of cold extraction buffer (provided in the NAD assay kit) and vortex each tube for 10 seconds. • 10. Centrifuge samples at 13,000×g for 10 min to remove insoluble material. • 11. Use a small aliquot of extract to determine total protein concentration by BCA protein assay kit. • 12. Deproteinize samples by filtering them through a 10 kDa cut-off spin filter. Centrifuge at 13,000×g for 10 min. • 13. After cell lysate is filtered, load 25 uL of samples to 96 well plate for NAD assay. • 14. Add 25 uL of extraction buffer to each well with samples to dilute them 1:2. Add 50 uL of standards to appropriate wells. • 15. Set up master reaction mix of cycling buffer and NAD cycling enzyme mix. Add 100 uL of mix to each well and incubate for […]. • 16. Add 10 uL of developer into each well. • 17. Let plate incubate at room temperature for 1 hr. • 18. Stop the reaction by adding 10 uL of stop solution into each well and mix well. • 19. Measure absorbance at 450 nm using plate reader. • 20. Plot standard curve and normalize data to determine total NAD level.

NHDF cells = assay: General NAD Assay Procedure: total NAD level in NHDF cells (NAD/NADH Quantification Kit); type: cell-based; details: for increase in NAD levels compared with NMN: 6-hour time point, all concentrations
Description: NHDF cells (Lonza Cat #CC-2511) were plated in 12-well tissue culture plates at a density of 200,000 cells per well in 0.75 mL growth medium (Lonza FGM-2 cat #CC-3132 containing growth factors; cat #CC-4126). The plates were then incubated overnight at 37° C. in a humidified atmosphere of 5% CO2. The next day, dilutions of each test article were prepared in growth medium at 4× the desired final concentration. 250 μL of each dilution was added to respective wells to obtain desired concentration in each well. The cells were incubated for the desired length of time.
After the incubation, the cell monolayers in each well were washed with cold PBS. 400 μL of extraction buffer (provided in the NAD assay kit) was added and triturated 5-6 time. The cell lysate was collected in Eppendorf tubes and then flash frozen in a dry ice-methanol bath for 20 min then thawed at room temperature. The freeze-thaw cycle was repeated one additional time. The cell lysates were centrifuged and the supernatant collected stored at −80° C. until use.
An aliquot of extract was used to determine total protein concentration using Pierce BCA kit (Thermo Fisher Cat #23225). The total volumes of each sample were adjusted so that the total protein concentration was same in all samples.
50 μL of standards and each sample were added to appropriate wells of a 96-well plate, and the NAD assay according to the kit manufacturer's instructions (NAD/NADH Quantification Kit; Sigma-Aldrich; Catalog Number MAK037). The absorbance at 450 nm was measured using an Envision plate reader (Perkin Elmer) with default settings. The data was normalized against a blank. A standard curve was plotted and used to determine the total NAD level in each test sample.

O=C(Nc1ccccc1C[P+](c1ccccc1)(c1ccccc1)c1ccccc1)c1cccnc1
NAD+ level (HaCaT cells): 666 pmol/mg protein

CC(=O)OC[C@H]1O[C@@H]([n+]2cccc(C(=O)NCc3ccccc3)c2)[C@H](OC(C)=O)[C@@H]1OC(C)=O
NAD+ level (HaCaT cells): 399 pmol/mg protein

CC(=O)OCC1OC([n+]2cccc(C(=O)Oc3c(C)c(C)c4c(c3C)CC[C@@](C)(CCC[C@H](C)CCC[C@H](C)CCCC(C)C)O4)c2)C(OC(C)=O)C1OC(C)=O (stereo partly drawn)
NAD+ level (HaCaT cells): 301 pmol/mg protein

O=C(Cc1ccccc1Nc1c(Cl)cccc1Cl)OCCOC(=O)c1cccnc1
NAD+ level (HaCaT cells): <1 pmol/mg protein

CC1=C(/C=C/C(C)=C/C=C/C(C)=C/C(=O)OCCOC(=O)c2cccnc2)C(C)(C)CCC1
NAD+ level (HaCaT cells): 788 pmol/mg protein

NC(=O)c1ccc[n+]([C@@H]2O[C@H](COP(=O)([O-])O)[C@@H](O)[C@H]2O)c1 [NMN, nicotinamide mononucleotide, reference compound]
Average Total NAD (pmoles) Concentration from NAD Assay (NHDF cells; 3-Hour, Conc. 5 μM): 48.5 pmol
Average Total NAD (pmoles) Concentration from NAD Assay (NHDF cells; 3-Hour, Conc. 10 μM): 63.5 pmol
Average Total NAD (pmoles) Concentration from NAD Assay (NHDF cells; 3-Hour, Conc. 20 μM): 63.1 pmol
Average Total NAD (pmoles) Concentration from NAD Assay (NHDF cells; 6-Hour, Conc. 5 μM): 50.9 pmol
Average Total NAD (pmoles) Concentration from NAD Assay (NHDF cells; 6-Hour, Conc. 10 μM): 54.9 pmol
Average Total NAD (pmoles) Concentration from NAD Assay (NHDF cells; 6-Hour, Conc. 20 μM): 58.6 pmol

O=C(O)c1ccc[n+]([C@@H]2O[C@H](COP(=O)(O)O)[C@@H](O)[C@H]2O)c1 [Sample 1, Nicotinic acid mononucleotide]
Average Total NAD (pmoles) Concentration from NAD Assay (NHDF cells; 3-Hour, Conc. 5 μM): 38.1 pmol
Average Total NAD (pmoles) Concentration from NAD Assay (NHDF cells; 3-Hour, Conc. 10 μM): 55.0 pmol
Average Total NAD (pmoles) Concentration from NAD Assay (NHDF cells; 3-Hour, Conc. 20 μM): 59.0 pmol
Average Total NAD (pmoles) Concentration from NAD Assay (NHDF cells; 6-Hour, Conc. 5 μM): 72.6 pmol
Average Total NAD (pmoles) Concentration from NAD Assay (NHDF cells; 6-Hour, Conc. 10 μM): 77.8 pmol
Average Total NAD (pmoles) Concentration from NAD Assay (NHDF cells; 6-Hour, Conc. 20 μM): 79.4 pmol

O=C(NCCCCCC[P+](c1ccccc1)(c1ccccc1)c1ccccc1)c1ccc[n+]([C@@H]2O[C@H](COP(=O)(O)O)[C@@H](O)[C@H]2O)c1 [Sample 2, 1-((2R,3R,4S,5R)-3,4-dihydroxy-5-((phosphonooxy)methyl)tetrahydrofuran-2-yl)-3-((6-(triphenylphosphonio)hexyl)carbamoyl)pyridin-1-ium]
Average Total NAD (pmoles) Concentration from NAD Assay (NHDF cells; 3-Hour, Conc. 5 μM): 35.5 pmol
Average Total NAD (pmoles) Concentration from NAD Assay (NHDF cells; 3-Hour, Conc. 10 μM): 45.5 pmol
Average Total NAD (pmoles) Concentration from NAD Assay (NHDF cells; 3-Hour, Conc. 20 μM): 59.3 pmol
Average Total NAD (pmoles) Concentration from NAD Assay (NHDF cells; 6-Hour, Conc. 5 μM): 82.2 pmol
Average Total NAD (pmoles) Concentration from NAD Assay (NHDF cells; 6-Hour, Conc. 10 μM): 82.0 pmol
Average Total NAD (pmoles) Concentration from NAD Assay (NHDF cells; 6-Hour, Conc. 20 μM): 74.5 pmol
increase in NAD levels compared with NMN (NHDF cells): greater increase in NAD levels than NMN

O=C(NCCCCCC[P+](c1ccccc1)(c1ccccc1)c1ccccc1)c1cccnc1 [Sample 5]
Average Total NAD (pmoles) Concentration from NAD Assay (NHDF cells; 3-Hour, Conc. 5 μM): 41.6 pmol
Average Total NAD (pmoles) Concentration from NAD Assay (NHDF cells; 3-Hour, Conc. 10 μM): 57.5 pmol
Average Total NAD (pmoles) Concentration from NAD Assay (NHDF cells; 3-Hour, Conc. 20 μM): 60.0 pmol
Average Total NAD (pmoles) Concentration from NAD Assay (NHDF cells; 6-Hour, Conc. 5 μM): 68.2 pmol
Average Total NAD (pmoles) Concentration from NAD Assay (NHDF cells; 6-Hour, Conc. 10 μM): 77.0 pmol
Average Total NAD (pmoles) Concentration from NAD Assay (NHDF cells; 6-Hour, Conc. 20 μM): 76.0 pmol
increase in NAD levels compared with NMN (NHDF cells): greater increase in NAD levels than NMN

O=C(NCCCCCC[P+](c1ccccc1)(c1ccccc1)c1ccccc1)c1cccnc1 [drawing 171]
NAD+ level (HaCaT cells): 217 pmol/mg protein

O=C(NCCCCCC[P+](c1ccccc1)(c1ccccc1)c1ccccc1)c1ccc[n+]([C@@H]2O[C@H](COP(=O)(O)O)[C@@H](O)[C@H]2O)c1 [drawing 172]
NAD+ level (HaCaT cells): 449 pmol/mg protein
